This note sets out measurements from BindingDB's records for doi:10.1021/jm00116a002 (Abbott Laboratories, 1992).

SMILES strings stand for the structures. Where only a bound is given, the exact number is not on record here.

Experiment [1] deals with Gastrin/cholecystokinin type B receptor (Cavia porcellus). The experiment in a line: The compound was tested for the inhibition of [125I]-Bolton-Hunter CCK-8 binding to cholecystokinin type B receptor in guinea pig cerebral cortical.
For experiment [2] the target is unchanged. The experiment can be described thus: The compound was tested for the inhibition of [125I]-Bolton-Hunter CCK-8 binding to cholecystokinin type B receptor in guinea pig cerebral cortical; Not determined.

As a reminder, the IC50 is the concentration that inhibits the measured activity by half. The compound `CCCCCN(CCCCC)C(=O)[C@@H](Cc1c[nH]c2ccccc12)NC(=O)c1ccc2cccc(O)c2n1` came in with an IC50 in experiment [1] of more than 10 µM.
For `CCCCCN(CCCCC)C(=O)[C@@H](Cc1c(Sc2ccccc2[N+](=O)[O-])[nH]c2ccccc12)NC(=O)c1cnc2ccccc2c1`, the IC50 in experiment [2] was more than 10 µM.
In the case of `CN(Cc1ccccc1)C(=O)[C@@H](Cc1c[nH]c2ccccc12)NC(=O)c1cnc2ccccc2c1`, the IC50 in experiment [1] came to 10 µM. This lies in the double-digit micromolar range.
In experiment [1], `CCCCCN(CCCCC)C(=O)[C@H](Cc1c[nH]c2ccccc12)NC(=O)c1ccc(Cl)c(Cl)c1` had an IC50 of more than 10 µM.
For `CCCCCN(CCCCC)C(=O)[C@@H](Cc1c[nH]c2ccccc12)NC(=O)c1ccc(Cl)c(Cl)c1`, in experiment [1], the concentration for half-maximal inhibition (IC50) is more than 10 µM.
As for `CCCCCN(CCCCC)C(=O)[C@@H](Cc1c[nH]c2ccccc12)NC(=O)c1c[nH]c2ccccc12`, the IC50 in experiment [1] worked out at 20 µM. This counts as double-digit micromolar.
Compound `CCCCCN(CCCCC)C(=O)[C@@H](Cc1c[nH]c2ccccc12)NC(=O)c1cccc2ccccc12` gave an IC50 in experiment [1] of 9.7 µM.
On the same count and under the same terms, to `CCCCCN(CCCCC)C(=O)[C@@H](CC1C(=O)Nc2ccccc21)NC(=O)c1cnc2ccccc2c1` (some centres not stated) belongs 4.1 µM; to `CCCCCN(CCCCC)C(=O)[C@@H](Cc1c[nH]c2ccccc12)NC(=O)c1ccc2ccccc2c1`, 11 µM.
For the compound `CCCCCN(CCCCC)C(=O)[C@@H](Cc1c[nH]c2ccccc12)NC(=O)/C=C/c1cccnc1`, the IC50 in experiment [2] is more than 10 µM.
`C[C@H](NC(=O)[C@@H](Cc1c[nH]c2ccccc12)NC(=O)c1cnc2ccccc2c1)c1ccccc1` had an IC50 in experiment [1] of more than 10 µM.
As for `CCOC(=O)CN(Cc1ccccc1)C(=O)[C@@H](Cc1c[nH]c2ccccc12)NC(=O)c1cnc2ccccc2c1`, the IC50 in experiment [1] turned out to be 9.2 µM.
